Source: patent publication US11020395B2, “Cycloalkyl substituted triazole compounds as agonists of the APJ receptor” (AMGEN INC., priority 2016, dated 2021)

Each compound was assayed against human APJ receptor (Homo sapiens (Human), UniProt P35414) (assay: [35S]GTPγS binding assay on membranes from CHO cells stably expressing human APJ receptor). Conditions: [35S]GTPγS SPA, read-out: Activity hAPJ SPA EC50 IP.
Assay type: biochemical
How it was run: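 Agonist-stimulated [35S]GTPγS binding measured on membranes of a stable human APJ CHO line, 90 min at room temperature, with GDP, MgCl2 and NaCl levels optimized beforehand. Means of independent runs fitted by non-linear regression to give EC50.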

human APJ receptor, sequence (P35414 whole entry): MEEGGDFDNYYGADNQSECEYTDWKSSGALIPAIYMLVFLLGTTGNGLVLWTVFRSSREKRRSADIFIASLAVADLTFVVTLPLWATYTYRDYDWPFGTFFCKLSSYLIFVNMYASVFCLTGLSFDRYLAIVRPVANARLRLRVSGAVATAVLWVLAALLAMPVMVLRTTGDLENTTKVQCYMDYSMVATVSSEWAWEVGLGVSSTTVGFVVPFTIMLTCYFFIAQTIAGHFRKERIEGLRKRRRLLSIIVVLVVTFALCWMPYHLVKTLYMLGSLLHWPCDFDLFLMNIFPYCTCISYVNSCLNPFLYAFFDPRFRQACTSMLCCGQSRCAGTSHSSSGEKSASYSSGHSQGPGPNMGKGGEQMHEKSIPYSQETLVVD

Row | Compound | EC50 [nM]
1 | COc1cccc(OC)c1-n1c(NS(=O)(=O)[C@@H](C)[C@H](OC)c2ncc(Cl)cn2)nnc1C1CC2(CC2)C1 [Example 239.0, (1R,2S)-1-(5-chloro-2-pyrimidinyl)-N-(4-(2,6-dimethoxyphenyl)-5-(spiro[2.3]hexan-5-yl)-4H-1,2,4-triazol-3-yl)-1-methoxy-2-propanesulfonamide] | 0.64
2 | COc1ncnc(OC)c1-n1c(NS(=O)(=O)[C@@H](C)[C@H](OC)c2ncc(Cl)cn2)nnc1C1CC2(COC2)C1 [Example 240.0, (1R,2S)-1-(5-chloro-2-pyrimidinyl)-N-(4-(4,6-dimethoxy-5-pyrimidinyl)-5-(2-oxaspiro[3.3]heptan-6-yl)-4H-1,2,4-triazol-3-yl)-1-methoxy-2-propanesulfonamide] | 71
3 | COc1cccc(OC)c1-n1c(NS(=O)(=O)[C@@H](C)[C@H](OC)c2ncc(Cl)cn2)nnc1C1CCCC1 [Example 241.0, (1R,25)-1-(5-chloro-2-pyrimidinyl)-N-(5-cyclopentyl-4-(2,6-dimethoxyphenyl)-4H-1,2,4-triazol-3-yl)-1-methoxy-2-propanesulfonamide] | 1.2
4 | (1R,2S)-1-(5-chloropyrimidin-2-yl)-N-(4-(2,6-dimethoxyphenyl)-5-((R)-2,2-dimethylcyclopropyl)-4H-1,2,4-triazol-3-yl)-1-methoxypropane-2-sulfonamide or (1R,2S)-1-(5-chloropyrimidin-2-yl)-N-(4-(2,6-dimethoxyphenyl)-5-((S)-2,2-dimethylcyclopropyl)-4H-1,2,4-triazol-3-yl)-1-methoxypropane-2-sulfonamide [Example 22.0] | 0.29
5 | (1R,2S)-1-(5-chloropyrimidin-2-yl)-N-(4-(2,6-dimethoxyphenyl)-5-((R)-3-oxocyclopentyl)-4H-1,2,4-triazol-3-yl)-1-methoxypropane-2-sulfonamide or (1R,2S)-1-(5-chloropyrimidin-2-yl)-N-(4-(2,6-dimethoxyphenyl)-5-((S)-3-oxocyclopentyl)-4H-1,2,4-triazol-3-yl)-1-methoxypropane-2-sulfonamide [Example 224.0] | 38
6 | (1R,2S)-1-(5-chloropyrimidin-2-yl)-N-(4-(2,6-dimethoxyphenyl)-5-((R)-3-oxocyclopentyl)-4H-1,2,4-triazol-3-yl)-1-methoxypropane-2-sulfonamide or (1R,2S)-1-(5-chloropyrimidin-2-yl)-N-(4-(2,6-dimethoxyphenyl)-5-((S)-3-oxocyclopentyl)-4H-1,2,4-triazol-3-yl)-1-methoxypropane-2-sulfonamide [Example 225.0] | 160
7 | (1R,2S)-1-(5-chloropyrimidin-2-yl)-N-(4-(2,6-dimethoxyphenyl)-5-((S)-spiro[2.2]pentan-1-yl)-4H-1,2,4-triazol-3-yl)-1-methoxypropane-2-sulfonamide or (1R,2S)-1-(5-chloropyrimidin-2-yl)-N-(4-(2,6-dimethoxyphenyl)-5-((R)-spiro[2.2]pentan-1-yl)-4H-1,2,4-triazol-3-yl)-1-methoxypropane-2-sulfonamide [Example 222.0] | 24
8 | (1R,2S)-1-(5-chloropyrimidin-2-yl)-N-(4-(2,6-dimethoxyphenyl)-5-((S)-spiro[2.2]pentan-1-yl)-4H-1,2,4-triazol-3-yl)-1-methoxypropane-2-sulfonamide or (1R,2S)-1-(5-chloropyrimidin-2-yl)-N-(4-(2,6-dimethoxyphenyl)-5-((R)-spiro[2.2]pentan-1-yl)-4H-1,2,4-triazol-3-yl)-1-methoxypropane-2-sulfonamide [Example 223.0] | 1.2
9 | (1R,2S)-1-(5-chloropyrimidin-2-yl)-N-(4-(4,6-dimethoxypyrimidin-5-yl)-5-((R)-6-oxaspiro[2.5]octan-1-yl)-4H-1,2,4-triazol-3-yl)-1-methoxypropane-2-sulfonamide or (1R,2S)-1-(5-chloropyrimidin-2-yl)-N-(4-(4,6-dimethoxypyrimidin-5-yl)-5-((S)-6-oxaspiro[2.5]octan-1-yl)-4H-1,2,4-triazol-3-yl)-1-methoxypropane-2-sulfonamide [Example 102.0] | 160
10 | (1R,2S)-1-(5-chloropyrimidin-2-yl)-N-(4-(4,6-dimethoxypyrimidin-5-yl)-5-((R)-6-oxaspiro[2.5]octan-1-yl)-4H-1,2,4-triazol-3-yl)-1-methoxypropane-2-sulfonamide or (1R,2S)-1-(5-chloropyrimidin-2-yl)-N-(4-(4,6-dimethoxypyrimidin-5-yl)-5-((S)-6-oxaspiro[2.5]octan-1-yl)-4H-1,2,4-triazol-3-yl)-1-methoxypropane-2-sulfonamide [Example 103.0] | 39
11 | (1R,2S)-1-(5-chloropyrimidin-2-yl)-N-(4-(4,6-dimethoxypyrimidin-5-yl)-5-((R)-spiro[2.2]pentan-1-yl)-4H-1,2,4-triazol-3-yl)-1-methoxypropane-2-sulfonamide or (1R,2S)-1-(5-chloropyrimidin-2-yl)-N-(4-(4,6-dimethoxypyrimidin-5-yl)-5-((S)-spiro[2.2]pentan-1-yl)-4H-1,2,4-triazol-3-yl)-1-methoxypropane-2-sulfonamide [Example 106.0] | 19
12 | (1R,2S)-1-(5-chloropyrimidin-2-yl)-N-(4-(4,6-dimethoxypyrimidin-5-yl)-5-((R)-spiro[2.2]pentan-1-yl)-4H-1,2,4-triazol-3-yl)-1-methoxypropane-2-sulfonamideor (1R,2S)-1-(5-chloropyrimidin-2-yl)-N-(4-(4,6-dimethoxypyrimidin-5-yl)-5-((S)-spiro[2.2]pentan-1-yl)-4H-1,2,4-triazol-3-yl)-1-methoxypropane-2-sulfonamide [Example 105.0] | 0.92
13 | (1R,2S)-1-(5-chloropyrimidin-2-yl)-N-(5-((R)-2,2-dimethylcyclopropyl)-4-(tetrahydro-2H-pyran-4-yl)-4H-1,2,4-triazol-3-yl)-1-methoxypropane-2-sulfonamide or (1R,2S)-1-(5-chloropyrimidin-2-yl)-N-(5-((S)-2,2-dimethylcyclopropyl)-4-(tetrahydro-2H-pyran-4-yl)-4H-1,2,4-triazol-3-yl)-1-methoxypropane-2-sulfonamide [Example 20.0] | 840
14 | (1R,2S)-1-(5-chloropyrimidin-2-yl)-N-(5-((R)-2,2-dimethylcyclopropyl)-4-(tetrahydro-2H-pyran-4-yl)-4H-1,2,4-triazol-3-yl)-1-methoxypropane-2-sulfonamide or (1R,2S)-1-(5-chloropyrimidin-2-yl)-N-(5-((S)-2,2-dimethylcyclopropyl)-4-(tetrahydro-2H-pyran-4-yl)-4H-1,2,4-triazol-3-yl)-1-methoxypropane-2-sulfonamide [Example 21.0] | 480
15 | (1S,2S)-N-(4-(2,6-dimethoxyphenyl)-5-(trans-3-methoxycyclobutyl)-4H-1,2,4-triazol-3-yl)-1-(5-methyl-2-pyrimidinyl)-1-(2-propanyloxy)-2-propanesulfonamide or (1S,2S)-N-(4-(2,6-dimethoxyphenyl)-5-(cis-3-methoxycyclobutyl)-4H-1,2,4-triazol-3-yl)-1-(5-methyl-2-pyrimidinyl)-1-(2-propanyloxy)-2-propanesulfonamide [Example 226.0] | 21
